Measured values as given in patent US10517863B2, “Trilobine and its natural analogs for use as a drug” (PIERRE FABRE MEDICAMENT, priority 2015, dated 2019).

Experiments:
[1] = biological target: T1, human C-terminal DNMT3A (a.a. 623-908) (Homo sapiens, UniProt Q9Y6K1); test: hDNMT3A restriction-based fluorescence assay; assay type: biochemical; settings: read-out: hDNMT 3A inhibition, Inhibition (%)
T1 construct: The human C-terminal DNMT3A (a.a. 623-908); made in house
Excerpt: hDNMT3A enzyme inhibition was adapted from the restriction-based fluorescence assay protocol as described in the literature (Ceccaldi et al. ChemBioChem 2011, 12, 1337-1345). Briefly, a 5′-labelled biotin oligonucleotide is hybridized to its complementary strand labelled with 6-carboxyfluorescein at the 3′-end into a 384 well microplate (black Optiplates; Perkin Elmer) pre-coated with avidin. The duplex contains a unique CpG site overlapping with a restriction site of a methylation sensitive restriction enzyme. The human C-terminal DNMT3A (a.a. 623-908), produced as described in the literature (Gros et al. Nucl. Acids Res. 2013, 41(19):e185), was added in each well (200 ng/well) and mixed with the chemical compounds at desired concentrations and freshly prepared AdoMet (20 μM final concentration) to start the reaction in a total volume of 50 μL. After 1 hour incubation at 37° C. each well were washed three times with PBS, Tween-20 0.05%, NaCl (500 mM) and three more times with PBST. Specific fluorescent signals were detected with the methylation-sensitive restriction enzyme HpyCH4IV (NEB) as described and measured on a Perkin Elmer Envision detector. The percentage of inhibition is reported. The formula used to calculate the percentage of inhibition is [(X−Y)/X]×100, where X is the signal determined in the absence of the inhibitor and Y is the signal obtained in the presence of the inhibitor. The concentration at which 50% of efficacy of inhibition is observed (EC50) was determined by analysis of a concentration range of the tested compound in triplicates. The non-linear regression fittings with sigmoidal dose-response (variable slope) were performed with GraphPad Prism 4.03 (GraphPad Software).

[2] = test system: panel of cancer cell lines; test: Anti-proliferative activity (ATPLite), whole panel; assay type: cell-based; settings: Homo sapiens; range over the panel
Procedure: (§1) To measure the anti-proliferative properties of tested molecules, 2×10^4 cells are seeded at day 0 in a 96 wells plate. The compounds to be tested, stored at −20° C. as 10^−2 M stock solution in 100% DMSO, are freshly diluted on day 1 in the cell medium, before adding a dose range of 3.2 nM to 10 μM to the cells. The cell viability is assessed using the ATPLite kit from Perkin (ATPlite 1 Step Luminescence Assay System, ref 3016739), following the provider instructions. The raw data are analyzed with GraphPad Prism software (v4.03) to generate IC50 values corresponding to the compound concentrations giving 50% reduction in cell viability. The values presented are the mean results of at least two independent experiments. The standard errors are indicated.

[3] = test system: P15 promoter in leukaemia KG1 cells; test: P15 (CDKN2B) promoter demethylation, bisulfite PCR cloning-sequencing; assay type: cell-based, human; settings: after 3 days, at 0.32 μM
Procedure: Cancer cell lines (colon HCT116 or leukaemia KG1) were treated with the compounds as indicated in the Data Tables and then analysed as following.
DNA was isolated from cultured cells using the DNeasy Blood and Tissue Kit according to the manufacturer's specifications (Qiagen). DNA bisulphite conversion was performed on 2 μg of DNA using the EZ DNA Methylation-Gold Kit according to the manufacturer's specifications (Zymo Research) and bisulfited DNA was eluted with 10 μL of water. Two different techniques were used to analyse the DNA methylation profile after bisulfite conversion of genomic DNA: (A) cloning and sequencing or (B) COBRA. The primers for each promoter are specified in the Table 3.
Sequencing of bisulfite-treated DNA allowing resolution of the methylation state of every cytosine in the target sequence, at single molecule resolution, is considered as the “gold standard” for DNA methylation analysis.
Bisulfite-specific primers with a minimum length of 18 bp were designed using Primer 3 program. […]
PCR amplicons were cloned with the StrataClone Ultra Blunt PCR Cloning Kit (Agilent Technologies), according to the manufacturers' instructions and up to 24 clones were picked for sequencing. […] Electrophoregram files and methylation signals at a given CpG site were quantified using the BISMA software as described in the literature (Rohde et al. BMC Bioinformatics 2010, 11, 230).

[4] = test system: P16 expression in colon cancer cells HCT116; test: P16 reexpression by RT-qPCR; assay type: cell-based, human; settings: at 100 nM, at 3 days
HCT-116 = test: Anti-proliferative activity (ATPLite); assay type: cell-based; settings: Homo sapiens; HCT-116, Colorectal; +/− standard error; read-out: Antiproliferative activity EC50
Procedure: as §1

Karpass299 = test: Anti-proliferative activity (ATPLite); assay type: cell-based; settings: Homo sapiens; Karpass299, Lymphoma; +/− standard error; read-out: Antiproliferative activity EC50
Procedure: as §1

KG-1 = test: Anti-proliferative activity (ATPLite); assay type: cell-based; settings: Homo sapiens; KG-1, Leukaemia; +/− standard error; read-out: Antiproliferative activity EC50
Procedure: as §1

T1 sequence (Q9Y6K1 627-912): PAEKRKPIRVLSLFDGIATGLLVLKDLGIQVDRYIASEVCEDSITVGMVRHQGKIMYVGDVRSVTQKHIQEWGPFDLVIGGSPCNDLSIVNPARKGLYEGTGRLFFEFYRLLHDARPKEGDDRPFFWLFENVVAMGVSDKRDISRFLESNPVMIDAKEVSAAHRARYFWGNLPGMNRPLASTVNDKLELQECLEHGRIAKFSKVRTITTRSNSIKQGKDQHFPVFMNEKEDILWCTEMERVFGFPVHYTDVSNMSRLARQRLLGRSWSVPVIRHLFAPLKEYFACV

COc1ccc2cc1Oc1ccc(cc1)C[C@@H]1NCCc3cc(OC)c4c(c31)Oc1cc3c(cc1O4)CCN(C)[C@H]3C2 [Compound 1, Trilobine]
inhibition at 10 µM ([1]; 10 μM): 78% | inhibition at 32 µM ([1]; 32 μM): 94% | IC50 [2]: 900 to 6800 nM | Demethylation (COBRA) P15/KG1 [3]: −25% after 3 days | Rexpression (RT qPCR) P16/HCT116 expression fold to non-treated cells [4]: 5.0 ± 2.14 fold | EC50 (HCT-116): 1200 nM | EC50 (Karpass299): 1300 nM | EC50 (KG-1): 2200 nM
